Assay results published in ChEMBL document CHEMBL3507680, “University of Dundee, Gates Library screen for HepG2 cell viability”.

assay: Human HepG2 cell viability assay in 384 well format; format: toxicity, cell-based; design: dose 125 nL, time 70.5 hour; cytotoxicity at 70.5 h: concentration not given beside the values; conditions: HepG2 cells, read-out: Inhibition

| Compound | cytotoxicity at 70.5 h |
| --- | --- |
| CCN1CCN(Cc2nc(CC(C)C)no2)CC1 | 19.9% |
| COc1cccc(CNCc2c(C)nn(C)c2N(C)C)c1 | 0.816% |
| O=C(c1cccc2cccnc12)N1CCCC(n2ccnc2)C1 (configuration not stated) | -5.33% |
| Cc1cc(NC(=O)CN2CCCC(Cn3nc(C)nc3C)C2)n(C)n1 (configuration not stated) | -2.11% |
| CCc1nc(C2CCCN2CC(=O)NCCOc2ccccc2)no1 (configuration not stated) | 11.4% |
| Cc1cc(C)n(CC2CN(Cc3ccccn3)CCO2)n1 (configuration not stated) | 1.96% |
| COCCOc1cccc(CNCc2c(C)nn(C)c2N(C)C)c1 | -2.1% |
| Cn1cc(Cl)cc1C(=O)N1CCCN(Cc2nccn2C)CC1 | -1.83% |
| Cc1noc(C)c1CNC(=O)N(C)C1CCN(c2ccccc2)C1=O (configuration not stated) | -2.2% |
| CCn1ccnc1CN1CCN(CC(=O)NC2CCOCC2)CC1 | 25.6% |
| COCCCNC(=O)Nc1ccc(-n2cncn2)c(C(F)(F)F)c1 | -5.91% |
| CN(C(=O)NCCN1CCOCC1)C1CCN(c2ccccc2)C1=O (configuration not stated) | -14.1% |
| Cc1ccccc1-c1noc(CN2CCc3cncnc3C2)n1 | -11.1% |
| Cc1ccc(NC2CCN(C(=O)CCn3nc(C)cc3C)CC2)nn1 | -14.3% |
| O=C(NCCCNc1ccc(C(F)(F)F)cn1)c1ccc(F)cc1 | -18.9% |
| COc1ccc(C(=O)NCCCNc2ccc(C(F)(F)F)cn2)cc1 | -17.2% |
| Cc1ccc(C(=O)NCc2cccnc2N(C)C)o1 | -12.1% |
| Cc1cc(C(=O)NCc2cccnc2N(C)C)c(C)o1 | 14.3% |
| CC(Cn1ccnc1)NC(=O)Nc1ccccn1 (configuration not stated) | 10.5% |
| N#Cc1cn(C2CC2)c(=O)n(CC(O)c2ccc(Cl)cc2)c1=O (configuration not stated) | -3.7% |
| Cc1cc(C)c(CNC(=O)N2CCN(c3nccs3)CC2)c(=O)[nH]1 | 14.3% |
| Cc1cc(C)c(CNC(=O)N2CCN(c3ccccn3)CC2)c(=O)[nH]1 | 0.786% |
| CC(OCC1CC1)C(=O)Nc1ncn(CC(=O)N2CCCCCC2)n1 (configuration not stated) | 10.7% |
| c1ncc2c(n1)CN(Cc1nc(-c3ccc4c(c3)OCO4)no1)CC2 | -4.3% |

| Compound | cytotoxicity at 70.5 h |
| --- | --- |
| c1ncc2c(n1)CN(Cc1nc(-c3ccoc3)no1)CC2 | -7.49% |
| CCn1ccnc1CN1CCN(CC(=O)NC(C2CC2)C2CC2)CC1 | 16.4% |
| CC(C)NC(=O)CCNC(=O)Nc1ccc(-n2cncn2)c(F)c1 | -11.5% |
| O=C(COC1CCCC1)Nc1ncn(CC(=O)N2CCCCCC2)n1 | -8.06% |
| Cc1cc(C)n(CC(=O)N2CCC(Nc3cccnn3)CC2)n1 | -5.61% |
| O=C(CC1=CCCCC1)Nc1ncn(CC(=O)N2CCCCCC2)n1 | -6.09% |
| CN(C(=O)NCc1ccncc1)C1CCCN(c2ccccc2)C1=O (configuration not stated) | -4.3% |
| CC(=O)Nc1ccc(-n2cncn2)c(F)c1 | -2.56% |
| Cc1nnc2n1CCN(CC(=O)N1CCc3ccccc3C1)C2 | 49.9% |
| CCCc1nc(CNCC2CCCN2c2cccnn2)cs1 (configuration not stated) | 11.9% |
| CCc1nnc2n1CCN(CC(=O)N1CCc3ccccc3C1)C2 | 28.5% |
| Cc1ncsc1C(=O)N(C)Cc1ccccc1 | -4.43% |
| c1cnnc(N2CCCC2CNCc2csc(-c3ccco3)n2)c1 (configuration not stated) | -11.5% |
| c1ccc(Cc2noc(CN3CCCCC3Cn3cncn3)n2)cc1 (configuration not stated) | 11.2% |
| O=C(Cn1nc(-c2ccc(F)cc2)oc1=O)NCc1ccncc1 | -12.1% |
| Cc1ncsc1C(=O)NCc1ccnc(OCC(F)(F)F)c1 | -11.3% |
| Cc1cc(C(=O)NCc2ccnc(OCC(F)(F)F)c2)on1 | 16.2% |
| Cc1cc(C)n(-c2ccc(CNCc3ccc(F)c(F)c3)cn2)n1 | 2.51% |
| Cc1cc(C)n(-c2ccc(CNCc3cccc(C#N)c3)cn2)n1 | -12.6% |
| Cc1ccc(C(=O)N2CCC(Oc3cccc(C)c3C)CC2)c(=O)[nH]1 | -4.54% |
| Cc1nc(CN2CCCC(N(C)Cc3nc(C)c(C)o3)C2)no1 (configuration not stated) | -2.87% |
| Cc1nc(CN2CCCN(CC(=O)Nc3ccncc3)CC2)no1 | 5.91% |
| Cc1nc(CN2CCCC(N(C)Cc3cnc(C)s3)C2)no1 (configuration not stated) | -1.22% |
| Cc1cc(NC(=O)CN2CCn3c(nnc3-c3ccccc3)C2)no1 | -1.17% |

| Compound | cytotoxicity at 70.5 h |
| --- | --- |
| Cc1cc(NC(=O)CCN2CCn3c(nnc3C3CC3)C2)no1 | -11.7% |
| CCc1nc(CN2CCOC(CN(C)c3cccnn3)C2)cs1 (configuration not stated) | -7.04% |
| Cc1ccccc1-c1noc(CN2CC(n3cccn3)C2)n1 | -5.02% |
| CCOc1ccccc1-c1noc(CN2CCN(CCOC)CC2)n1 | -6.13% |
| CC(Cc1cccs1)C(=O)NCc1cccc(N2CCCC2=O)c1 (configuration not stated) | -8.97% |
| O=C(c1cccc2ncccc12)N1CCCN(c2cccnn2)CC1 | -11.1% |
| Cc1cc(C)n(CC2CCCCN2CC(=O)N(C)Cc2ccco2)n1 (configuration not stated) | 6.64% |
| CCc1nnc(CN2CCCN(C(=O)c3ccccn3)CC2)o1 | -10.8% |
| CCc1nc(C2CCCN2Cc2nc(Cc3ccccc3)no2)no1 (configuration not stated) | -0.88% |
| Cc1ncc(CN2CCOC(CN(C)c3cccnn3)C2)s1 (configuration not stated) | -9.59% |
| CCc1noc(CN2CCN(C(=O)c3ccccn3)CC2)n1 | -7.01% |
| COc1ccc(Br)c(C(=O)N2CCCC(c3nc(C)no3)C2)c1 (configuration not stated) | -9.43% |
| CC(=O)Nc1nc(C(=O)NC(C)c2ccc(F)c(F)c2)cs1 (configuration not stated) | -7.42% |
| CNS(=O)(=O)c1ccc(CNC(=O)NCC2CCC2)cc1 | -8.5% |
| CC(=O)Nc1nc(C(=O)NC(C)c2ccc(C#N)cc2)cs1 (configuration not stated) | -7.27% |
| Cc1noc(C2CCCN(C(=O)c3cncc(Br)c3)C2)n1 (configuration not stated) | -10.8% |
| CCC(O)CN(CC(=O)NC(=O)NC1CC1)c1ccccc1 (configuration not stated) | -6.3% |
| CCNC(=O)NC(=O)CN(CC(C)O)c1ccccc1 (configuration not stated) | -7.42% |
| CCOC(CC)C(=O)NCc1cccc(N2CCCCC2=O)c1 (configuration not stated) | -6.54% |
| O=c1n(CCSCc2ccccc2Cl)nc2ccccn12 | -6.77% |
| Cc1ccc(CSCCn2nc3ccccn3c2=O)cc1 | -1.35% |
| O=C(Cc1ccc2c(c1)CCO2)N1CCCC(n2cccn2)C1 (configuration not stated) | -12.1% |
| NS(=O)(=O)c1ccc(CC(=O)N2CCCC(n3cccn3)C2)cc1 (configuration not stated) | -7.64% |
| Cc1noc(C2CCCN(C(=O)c3ccc(Cl)cc3F)C2)n1 (configuration not stated) | -7.02% |

| Compound | cytotoxicity at 70.5 h |
| --- | --- |
| O=C(Cc1cccc2cccnc12)N1CCCN(c2cccnn2)CC1 | -11% |
| Cc1nc2ccccc2nc1CN(C)C1CCCN(c2cccnn2)C1 (configuration not stated) | 4.32% |
| CN(C)c1ncccc1C(=O)N1CCCN(c2cccnn2)CC1 | -6.59% |
| O=C(c1cccnc1O)N1CCCN(c2cccnn2)CC1 | -9.98% |
| O=C(NCc1ccc(Br)cc1)NCC1CCOC1 (configuration not stated) | -10.4% |
| CN(Cc1ncc(C(C)(C)C)o1)CC1CCCN1c1cccnn1 (configuration not stated) | 23.4% |
| Cc1cc(NC(=O)C(C)N2CCN(c3nc(C)ns3)CC2)on1 (configuration not stated) | 4.54% |
| CCc1nc(CN2CCCN(C(=O)COC(C)C)CC2)cs1 | 2.07% |
| CN(Cc1nnc(C2CC2)o1)CC1CCCN1c1cccnn1 (configuration not stated) | -9.18% |
| Cc1nc(CN2CCCN(C(=O)COCC3CC3)CC2)cs1 | -2.01% |
| CCC1CCCN(CC(=O)Nc2oc(C)c3c(C)n[nH]c(=O)c23)C1 (configuration not stated) | -9.67% |
| COc1ccc(C(=O)N(C)Cc2cc(C)on2)c(OC)c1 | -4.71% |
| O=C(NCCn1nc2ccccn2c1=O)c1cc[nH]n1 | 0.216% |
| O=C(NCCn1nc2ccccn2c1=O)c1cc(C2CC2)[nH]n1 | 2.27% |
| Cn1cnnc1C1CCCN(C(=O)NCCc2ccccn2)C1 (configuration not stated) | -4.27% |
| Cn1cnnc1C1CCCN(C(=O)NCc2ccccc2)C1 (configuration not stated) | 1.38% |
| CCn1cnnc1C1CCN(C(=O)CCCOc2ccccc2)CC1 | -3.85% |
| CCc1nc(CN2CCCN(C(=O)c3cc(C)on3)CC2)cs1 | -1.87% |
| Cc1ncsc1C(=O)N1CCC(Nc2cccnn2)CC1 | -7.04% |
| CC(=O)Nc1nc(C(=O)N2CCC(Nc3cccnn3)CC2)cs1 | -2.92% |
| O=C(CSc1ccc(F)cc1)NS(=O)(=O)c1ccc2c(c1)OCCO2 | 6.32% |
| CC(CC(=O)NS(=O)(=O)c1ccc2c(c1)OCCO2)c1ccc(F)cc1 (configuration not stated) | -1.76% |
| CCOC1CCN(CC(=O)Nc2oc(C)c3c(C)n[nH]c(=O)c23)CC1 | -4.42% |
| CC(C)(C)c1cn2nc(N3CCCC(Cn4cncn4)C3)sc2n1 (configuration not stated) | -9.57% |

| Compound | cytotoxicity at 70.5 h |
| --- | --- |
| O=C(CCN1CCN(c2ccc3nncn3n2)CC1)NC1CCCC1 | -5.28% |
| CC(C)(C)c1cn2nc(N3CCCC3Cn3cccn3)sc2n1 (configuration not stated) | 0.173% |
| CCCn1nc2c(cc1=O)CN(Cc1nnc(C3CC3)o1)CC2 | 10.1% |
| CC(c1nc(C2CC2)no1)N1CCN(Cc2ccccc2)CC1 (configuration not stated) | -4.04% |
| c1cnc(-c2nc(CN3CCn4c(nnc4C4CC4)C3)cs2)nc1 | -9.61% |
| CC(c1nc(C2CC2)no1)N1CCN(Cc2cccc(F)c2F)CC1 (configuration not stated) | -10.5% |
| Cc1ccc(-c2nc(CN3CCn4c(C)nnc4C3)cs2)o1 | -7.11% |
| c1ccc(-c2nc(CN3CCn4c(nnc4C4CC4)C3)cs2)cc1 | -11.8% |
| CN(C)CC1CN(Cc2cccc(C(=O)N(C)C)c2)CCO1 (configuration not stated) | -1.2% |
| Cc1nc(C)n(CC2CCCCN2Cc2ncc(C(C)(C)C)o2)n1 (configuration not stated) | 8% |
| CC(NC(=O)NCCNc1cnccn1)c1cccs1 (configuration not stated) | -6.24% |
| COc1c(Br)cc(Br)cc1CNC(C)Cn1cccn1 (configuration not stated) | 16.4% |
| c1cc2n(n1)CC(CNCc1ccc(OCC3CC3)nc1)CN2 (configuration not stated) | 1.11% |
| CNS(=O)(=O)Cc1ccc(CNC(=O)c2ccc(C)[nH]c2=O)cc1 | -9.88% |
| CC(C)C(NC(=O)NCCNc1ccccn1)c1cccs1 (configuration not stated) | -8.85% |
| CC(C)(C)C(O)CN1CCN(C(=O)c2cccc3ncccc23)CC1 (configuration not stated) | 20.7% |
| Cn1nc2c(cc1=O)CN(Cc1nnc(-c3ccc(F)cc3)o1)CC2 | -22.9% |
| CCSCCC(=O)NS(=O)(=O)c1ccc2c(c1)OCCO2 | -13.7% |
| O=C(CSc1ccc(F)c(F)c1)NS(=O)(=O)c1ccc2c(c1)OCCO2 | -14% |
| CCc1nc(CN2CCN(C(=O)C3CCCCC3)CC2)cs1 | -12.3% |
| CCc1nc(CN2CCCN(C(=O)c3c(C)noc3C)CC2)cs1 | -12.9% |
